Experimental data taken from ChEMBL document CHEMBL1649271, “In vitro sensitivity testing of Leishmania clinical field isolates: preconditioning of promastigotes enhances infectivity for macrophage host cells” (Antimicrob Agents Chemother, 2009).

Assays:
[1] = Activity index, ratio of IC50 for Leishmania braziliensis PER002cl to IC50 for Leishmania guyanensis PER106; assay type: functional
[2] = system: Leishmania donovani; experiment: Activity index, ratio of IC50 for Leishmania donovani BPK190 to IC50 for Leishmania donovani BPK043; assay type: functional, organism-based
[3] = system: Leishmania donovani; experiment: Activity index, ratio of IC50 for Leishmania donovani BPK206 to IC50 for Leishmania donovani BPK043; assay type: functional, organism-based
[4] = system: Leishmania donovani; experiment: Activity index, ratio of IC50 for Leishmania donovani BPK206cl to IC50 for Leishmania donovani BPK043; assay type: functional, organism-based
[5] = system: Leishmania guyanensis; experiment: Activity index, ratio of IC50 for Leishmania guyanensis PER080 to IC50 for Leishmania guyanensis PER106; assay type: functional, organism-based
[6] = system: Leishmania donovani; experiment: Activity index, ratio of IC50 for Leishmania donovani BPK298 to IC50 for Leishmania donovani BPK043; assay type: functional, organism-based
[7] = system: Leishmania guyanensis; experiment: Activity index, ratio of IC50 for Leishmania guyanensis PER054 to IC50 for Leishmania guyanensis PER106; assay type: functional, organism-based
[8] = Activity index, ratio of IC50 for Leishmania braziliensis PER005cl to IC50 for Leishmania guyanensis PER106; assay type: functional
[9] = system: Leishmania donovani; experiment: Activity index, ratio of IC50 for Leishmania donovani BPK274 to IC50 for Leishmania donovani BPK043; assay type: functional, organism-based
[10] = system: Leishmania guyanensis; experiment: Activity index, ratio of IC50 for Leishmania guyanensis PER072 to IC50 for Leishmania guyanensis PER106; assay type: functional, organism-based
[11] = system: Leishmania donovani; experiment: Activity index, ratio of IC50 for Leishmania donovani BPK294 to IC50 for Leishmania donovani BPK043; assay type: functional, organism-based
[12] = system: Leishmania donovani; experiment: Activity index, ratio of IC50 for Leishmania donovani BPK190cl to IC50 for Leishmania donovani BPK043; assay type: functional, organism-based
[13] = system: Leishmania donovani; experiment: Activity index, ratio of IC50 for Leishmania donovani BPK178 to IC50 for Leishmania donovani BPK043; assay type: functional, organism-based
[14] = system: Leishmania guyanensis; experiment: Activity index, ratio of IC50 for Leishmania guyanensis PER008 to IC50 for Leishmania guyanensis PER106; assay type: functional, organism-based
[15] = system: Leishmania donovani; experiment: Activity index, ratio of IC50 for Leishmania donovani BPK177 to IC50 for Leishmania donovani BPK043; assay type: functional, organism-based
[16] = system: Leishmania donovani; experiment: Activity index, ratio of IC50 for Leishmania donovani BPK091 to IC50 for Leishmania donovani BPK043; assay type: functional, organism-based
[17] = system: Leishmania donovani; experiment: Antileishmanial activity against Leishmania donovani BPK091 amastigotes infected in Swiss mouse primary peritoneal mouse macrophages assessed as reduction of total parasite burden after 5 days; assay type: functional, organism-based
[18] = system: Leishmania donovani; experiment: Antileishmanial activity against Leishmania donovani BPK190 amastigotes infected in Swiss mouse primary peritoneal mouse macrophages assessed as reduction of total parasite burden after 5 days; assay type: functional, organism-based
[19] = system: Leishmania braziliensis; experiment: Antileishmanial activity against Leishmania braziliensis PER005cl amastigotes infected in Swiss mouse primary peritoneal mouse macrophages assessed as reduction of total parasite burden after 5 days; assay type: functional, organism-based
[20] = system: Leishmania donovani; experiment: Antileishmanial activity against Leishmania donovani BPK294 amastigotes infected in Swiss mouse primary peritoneal mouse macrophages assessed as reduction of total parasite burden after 5 days; assay type: functional, organism-based
[21] = system: Leishmania donovani; experiment: Antileishmanial activity against Leishmania donovani BPK298 amastigotes infected in Swiss mouse primary peritoneal mouse macrophages assessed as reduction of total parasite burden after 5 days; assay type: functional, organism-based
[22] = system: Leishmania donovani; experiment: Antileishmanial activity against Leishmania donovani BPK206cl amastigotes infected in Swiss mouse primary peritoneal mouse macrophages assessed as reduction of total parasite burden after 5 days; assay type: functional, organism-based
[23] = system: Leishmania guyanensis; experiment: Antileishmanial activity against Leishmania guyanensis PER072 amastigotes infected in Swiss mouse primary peritoneal mouse macrophages assessed as reduction of total parasite burden after 5 days; assay type: functional, organism-based
[24] = system: Leishmania braziliensis; experiment: Antileishmanial activity against Leishmania braziliensis PER002cl amastigotes infected in Swiss mouse primary peritoneal mouse macrophages assessed as reduction of total parasite burden after 5 days; assay type: functional, organism-based
[25] = system: Leishmania donovani; experiment: Antileishmanial activity against Leishmania donovani BPK177 amastigotes infected in Swiss mouse primary peritoneal mouse macrophages assessed as reduction of total parasite burden after 5 days; assay type: functional, organism-based
[26] = system: Leishmania guyanensis; experiment: Antileishmanial activity against Leishmania guyanensis PER106 amastigotes infected in Swiss mouse primary peritoneal mouse macrophages assessed as reduction of total parasite burden after 5 days; assay type: functional, organism-based
[27] = system: Leishmania donovani; experiment: Antileishmanial activity against Leishmania donovani BPK274 amastigotes infected in Swiss mouse primary peritoneal mouse macrophages assessed as reduction of total parasite burden after 5 days; assay type: functional, organism-based
[28] = system: Leishmania donovani; experiment: Antileishmanial activity against Leishmania donovani BPK206 amastigotes infected in Swiss mouse primary peritoneal mouse macrophages assessed as reduction of total parasite burden after 5 days; assay type: functional, organism-based
[29] = system: Leishmania donovani; experiment: Antileishmanial activity against Leishmania donovani BPK178 amastigotes infected in Swiss mouse primary peritoneal mouse macrophages assessed as reduction of total parasite burden after 5 days; assay type: functional, organism-based
[30] = system: Leishmania donovani; experiment: Antileishmanial activity against Leishmania donovani BPK043 amastigotes infected in Swiss mouse primary peritoneal mouse macrophages assessed as reduction of total parasite burden after 5 days; assay type: functional, organism-based
[31] = system: Leishmania guyanensis; experiment: Antileishmanial activity against Leishmania guyanensis PER080 amastigotes infected in Swiss mouse primary peritoneal mouse macrophages assessed as reduction of total parasite burden after 5 days; assay type: functional, organism-based
[32] = system: Leishmania donovani; experiment: Antileishmanial activity against Leishmania donovani BPK190cl amastigotes infected in Swiss mouse primary peritoneal mouse macrophages assessed as reduction of total parasite burden after 5 days; assay type: functional, organism-based
[33] = system: Leishmania guyanensis; experiment: Antileishmanial activity against Leishmania guyanensis PER054 amastigotes infected in Swiss mouse primary peritoneal mouse macrophages assessed as reduction of total parasite burden after 5 days; assay type: functional, organism-based
[34] = system: Leishmania guyanensis; experiment: Antileishmanial activity against Leishmania guyanensis PER008 amastigotes infected in Swiss mouse primary peritoneal mouse macrophages assessed as reduction of total parasite burden after 5 days; assay type: functional, organism-based

POTASSIUM ANTIMONYL TARTRATE TRIHYDRATE [listing 1 of 2 here]
Ratio IC50 [1]: 1.3
Ratio IC50 [2]: 4.5
Ratio IC50 [3]: 1.8
Ratio IC50 [4]: 0.8
Ratio IC50 [5]: 1.4
Ratio IC50 [6]: 2
Ratio IC50 [7]: 1.6
Ratio IC50 [8]: 2.4
Ratio IC50 [9]: 2.7
Ratio IC50 [10]: 1.6
Ratio IC50 [11]: 1
Ratio IC50 [12]: 4
Ratio IC50 [13]: 3.6
Ratio IC50 [14]: 1.6
Ratio IC50 [15]: 5.3
Ratio IC50 [16]: 3.9

sodium stibogluconate
Ratio IC50 [1]: 4.5
Ratio IC50 [2]: 6.6
Ratio IC50 [3]: 3.6
Ratio IC50 [4]: 5.5
Ratio IC50 [5]: 2.5
Ratio IC50 [6]: 1.9
Ratio IC50 [7]: 4
Ratio IC50 [8]: 5.8
Ratio IC50 [9]: 3.2
Ratio IC50 [10]: 6
Ratio IC50 [11]: 1.5
Ratio IC50 [12]: 4.2
Ratio IC50 [13]: 3.1
Ratio IC50 [14]: 3.2
Ratio IC50 [15]: 6.6
Ratio IC50 [16]: 3.2

POTASSIUM ANTIMONYL TARTRATE TRIHYDRATE [listing 2 of 2 here]
IC50 [17]: 24.2 µg/mL
IC50 [18]: 27.3 µg/mL
IC50 [19]: 25 µg/mL
IC50 [20]: 6 µg/mL
IC50 [21]: 12 µg/mL
IC50 [22]: 5 µg/mL
IC50 [23]: 19 µg/mL
IC50 [24]: 13.5 µg/mL
IC50 [25]: 32 µg/mL
IC50 [26]: 12 µg/mL
IC50 [27]: 16.2 µg/mL
IC50 [28]: 11 µg/mL
IC50 [29]: 21.8 µg/mL
IC50 [30]: 6 µg/mL
IC50 [31]: 14.5 µg/mL
IC50 [32]: 24 µg/mL
IC50 [33]: 18 µg/mL
IC50 [34]: 18 µg/mL

CCCCCCCCCCCCCCCCOP(=O)([O-])OCC[N+](C)(C)C [MILTEFOSINE]
IC50 ([17]; Leishmania donovani, BPK091, 120 h, read-out: IC50): 3.2 µM
IC50 ([18]; Leishmania donovani, BPK190, 120 h, read-out: IC50): 4.5 µM
IC50 ([19]; Leishmania braziliensis, PER005cl, 120 h, read-out: IC50): 10 µM
IC50 ([20]; Leishmania donovani, BPK294, 120 h, read-out: IC50): 3 µM
IC50 ([21]; Leishmania donovani, BPK298, 120 h, read-out: IC50): 3.4 µM
IC50 ([22]; Leishmania donovani, BPK206cl, 120 h, read-out: IC50): 2 µM
IC50 ([23]; Leishmania guyanensis, PER072, 120 h, read-out: IC50): 10 µM
IC50 ([24]; Leishmania braziliensis, PER002cl, 120 h, read-out: IC50): 10.3 µM
IC50 ([25]; Leishmania donovani, BPK177, 120 h, read-out: IC50): 2 µM
IC50 ([26]; Leishmania guyanensis, PER106, 120 h, read-out: IC50): 10 µM
IC50 ([27]; Leishmania donovani, BPK274, 120 h, read-out: IC50): 7.1 µM
IC50 ([28]; Leishmania donovani, BPK206, 120 h, read-out: IC50): 4 µM
IC50 ([29]; Leishmania donovani, BPK178, 120 h, read-out: IC50): 5.5 µM
IC50 ([30]; Leishmania donovani, BPK043, 120 h, read-out: IC50): 1.5 µM
IC50 ([31]; Leishmania guyanensis, PER080, 120 h, read-out: IC50): 7.5 µM
IC50 ([32]; Leishmania donovani, BPK190cl, 120 h, read-out: IC50): 3 µM
IC50 ([33]; Leishmania guyanensis, PER054, 120 h, read-out: IC50): 9.5 µM
IC50 ([34]; Leishmania guyanensis, PER008, 120 h, read-out: IC50): 5 µM
